In PubChem BioAssay AID248 (DTP/NCI, 2004):
Toxic doses and inconclusive results are not listed. Square brackets hold non-standard residues; d marks the D form. Peptide text beside a SMILES is read from it. * marks the point of attachment. ξ: configuration not given here. Pentanoyl = CCCCC(=O)*; ξP = O=C(O)C1CCCN1; OtBu = CC(C)(C)O*

System: L1210 leukemia ip in BDF1 mice, survival T/C
Test: NCI In Vivo Anticancer Drug Screen. Data for tumor model L1210 Leukemia (intraperitoneal) in B6D2F1 (BDF1) mice
Conditions: endpoint: mean survival time, higher = longer survival
Outline: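 Read-out is survival time, reported as the treated-group measurement over the vehicle-control measurement.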

[1] = dose: 100.0 mg/kg/injection, schedule: Q04DX003 (ip), vehicle: Klucel (hydroxypropylcellulose) (HPC)
[2] = dose: 200.0 mg/kg/injection, schedule: Q04DX003 (ip), vehicle: Klucel (hydroxypropylcellulose) (HPC)
[3] = dose: 100.0 mg/kg/injection, schedule: Q01DX001 (ip), vehicle: saline
[4] = dose: 200.0 mg/kg/injection, schedule: Q01DX001 (ip), vehicle: saline
[5] = dose: 400.0 mg/kg/injection, schedule: Q01DX001 (ip), vehicle: saline
[6] = dose: 100.0 mg/kg/injection, schedule: Q01DX001 (ip), vehicle: Klucel (hydroxypropylcellulose) (HPC)
[7] = dose: 200.0 mg/kg/injection, schedule: Q01DX001 (ip), vehicle: Klucel (hydroxypropylcellulose) (HPC)
[8] = dose: 400.0 mg/kg/injection, schedule: Q01DX001 (ip), vehicle: Klucel (hydroxypropylcellulose) (HPC)
[9] = dose: 400.0 mg/kg/injection, schedule: Q04DX003 (ip), vehicle: Klucel (hydroxypropylcellulose) (HPC)
[10] = dose: 50.0 mg/kg/injection, schedule: Q01DX009 (ip), vehicle: saline with Tween-80
[11] = dose: 50.0 mg/kg/injection, schedule: Q04DX003 (ip), vehicle: saline with Tween-80
[12] = dose: 100.0 mg/kg/injection, schedule: Q01DX009 (ip), vehicle: saline with Tween-80
[13] = dose: 100.0 mg/kg/injection, schedule: Q04DX003 (ip), vehicle: saline with Tween-80
[14] = dose: 200.0 mg/kg/injection, schedule: Q01DX009 (ip), vehicle: saline with Tween-80
[15] = dose: 200.0 mg/kg/injection, schedule: Q04DX003 (ip), vehicle: saline with Tween-80
[16] = dose: 100.0 mg/kg/injection, schedule: Q01DX009 (ip), vehicle: Klucel (hydroxypropylcellulose) (HPC)
[17] = dose: 200.0 mg/kg/injection, schedule: Q01DX009 (ip), vehicle: Klucel (hydroxypropylcellulose) (HPC)
[18] = dose: 400.0 mg/kg/injection, schedule: Q01DX009 (ip), vehicle: saline with Tween-80
[19] = dose: 400.0 mg/kg/injection, schedule: Q04DX003 (ip), vehicle: saline with Tween-80
[20] = dose: 12.5 mg/kg/injection, schedule: Q01DX009 (ip), vehicle: saline with Tween-80
[21] = dose: 25.0 mg/kg/injection, schedule: Q01DX009 (ip), vehicle: saline with Tween-80
[22] = dose: 100.0 mg/kg/injection, schedule: Q04DX002 (ip), vehicle: Klucel (hydroxypropylcellulose) (HPC)
[23] = dose: 200.0 mg/kg/injection, schedule: Q04DX002 (ip), vehicle: Klucel (hydroxypropylcellulose) (HPC)
[24] = dose: 400.0 mg/kg/injection, schedule: Q04DX002 (ip), vehicle: Klucel (hydroxypropylcellulose) (HPC)

## CCCCC(CC)CNC(C)=O (configuration not stated)
[1]
  T/C: 99 % of control
[2]
  T/C: 95 % of control

## BrCCCCCc1ccccc1
[3]
  T/C: 106 % of control
[4]
  T/C: 107 % of control
[5]
  T/C: 101 % of control

## CC(=O)C(=Cc1ccccc1Cl)C(C)=O
[6]
  T/C: 104 % of control
[1]
  T/C: 94 % of control
[7]
  T/C: 98 % of control
[2]
  T/C: 91 % of control
[8]
  T/C: 90 % of control
[9]
  T/C: 100 % of control

## CC(C)=CCC(=O)NC(=O)NS(=O)(=O)c1ccc(Cl)cc1
[1]
  T/C: 100 % of control
[2]
  T/C: 177 % of control
[9]
  T/C: 94 % of control

## CC[As](=O)(O)CC(C)C
dose: 100.0 mg/kg/injection, schedule: Q01DX009 (ip), vehicle: saline
  T/C: 96 % of control

## O=C1OC(c2ccc([N+](=O)[O-])cc2)=N/C1=C\c1ccc2c(c1)OCO2
dose: 100.0 mg/kg/injection, schedule: Q04DX002 (ip), vehicle: saline with Tween-80
  T/C: 92 % of control
dose: 400.0 mg/kg/injection, schedule: Q04DX002 (ip), vehicle: saline with Tween-80
  T/C: 87 % of control

## OCC(O)C1OCOC2COCOC21 (configuration not stated)
dose: 222.0 mg/kg/injection, schedule: Q01DX Z (ip), vehicle: saline
  T/C: 98 % of control
dose: 333.0 mg/kg/injection, schedule: Q01DX Z (ip), vehicle: saline
  T/C: 117 % of control
dose: 500.0 mg/kg/injection, schedule: Q01DX Z (ip), vehicle: saline
  T/C: 105 % of control

## CCCCCCCCCCCC[N+](C)(C)C
dose: 10.0 mg/kg/injection, schedule: Q01DX009 (ip), vehicle: saline
  T/C: 104 % of control
dose: 20.0 mg/kg/injection, schedule: Q01DX009 (ip), vehicle: saline
  T/C: 105 % of control

## CCCCCCCCCCCCCCC[N+](C)(C)C
dose: 12.5 mg/kg/injection, schedule: Q01DX009 (ip), vehicle: saline
  T/C: 102 % of control
dose: 25.0 mg/kg/injection, schedule: Q01DX009 (ip), vehicle: saline
  T/C: 93 % of control

## CCOC(=O)CCC(NC(=O)c1ccc2c(c1)CCCN2C=O)C(=O)OCC (configuration not stated)
[1]
  T/C: 104 % of control
[2]
  T/C: 103 % of control
[9]
  T/C: 103 % of control

## [O-][N+](=Nc1cccc(Cl)c1)c1cccc(Cl)c1
[10]
  T/C: 97 % of control
[11]
  T/C: 102 % of control
[12]
  T/C: 101 % of control
[13]
  T/C: 98 % of control
[14]
  T/C: 97 % of control
[15]
  T/C: 112 % of control

## COc1ccccc1NC(=S)Nc1ccccc1OC
[16]
  T/C: 102 % of control
dose: 100.0 mg/kg/injection, schedule: Q01DX009 (ip), vehicle: saline sonified
  T/C: 97 % of control
[12]
  T/C: 90 % of control
[1]
  T/C: 93 % of control
dose: 100.0 mg/kg/injection, schedule: Q04DX003 (ip), vehicle: saline sonified
  T/C: 110 % of control
[13]
  T/C: 92 % of control
[17]
  T/C: 94 % of control
dose: 200.0 mg/kg/injection, schedule: Q01DX009 (ip), vehicle: saline sonified
  T/C: 97 % of control
[14]
  T/C: 101 % of control
[2]
  T/C: 98 % of control
dose: 200.0 mg/kg/injection, schedule: Q04DX003 (ip), vehicle: saline sonified
  T/C: 95 % of control
[15]
  T/C: 96 % of control
dose: 400.0 mg/kg/injection, schedule: Q01DX009 (ip), vehicle: saline sonified
  T/C: 86 % of control
[18]
  T/C: 93 % of control
[9]
  T/C: 96 % of control
dose: 400.0 mg/kg/injection, schedule: Q04DX003 (ip), vehicle: saline sonified
  T/C: 116 % of control
[19]
  T/C: 92 % of control

## Cc1cc(C(c2ccccc2)c2ccccc2)cc(C)c1O
[6]
  T/C: 98 % of control
[7]
  T/C: 93 % of control
[8]
  T/C: 92 % of control

## Cc1cc(=O)[nH]c(N/N=C/c2ccco2)n1
dose: 50.0 mg/kg/injection, schedule: Q01DX009 (ip), vehicle: Klucel (hydroxypropylcellulose) (HPC)
  T/C: 96 % of control
[16]
  T/C: 96 % of control
[1]
  T/C: 87 % of control
[17]
  T/C: 95 % of control
[2]
  T/C: 90 % of control

## O=[N+]([O-])c1ccccc1CN1c2ccccc2N=C2c3ccccc3CC21 (configuration not stated)
[1]
  T/C: 88 % of control
[2]
  T/C: 91 % of control
[9]
  T/C: 100 % of control

## COc1ccc(/C=C/c2ccc3ccccc3[n+]2C)cc1
[20]
  T/C: 94 % of control
[21]
  T/C: 115 % of control
dose: 25.0 mg/kg/injection, schedule: Q04DX003 (ip), vehicle: Klucel (hydroxypropylcellulose) (HPC)
  T/C: 101 % of control
[10]
  T/C: 115 % of control
dose: 50.0 mg/kg/injection, schedule: Q04DX003 (ip), vehicle: Klucel (hydroxypropylcellulose) (HPC)
  T/C: 106 % of control

## Cc1nc(-c2ccccc2)no1
dose: 75.0 mg/kg/injection, schedule: Q01DX009 (ip), vehicle: Klucel (hydroxypropylcellulose) (HPC)
  T/C: 102 % of control
[22]
  T/C: 97 % of control
dose: 150.0 mg/kg/injection, schedule: Q01DX009 (ip), vehicle: Klucel (hydroxypropylcellulose) (HPC)
  T/C: 98 % of control
[23]
  T/C: 102 % of control
dose: 300.0 mg/kg/injection, schedule: Q01DX009 (ip), vehicle: Klucel (hydroxypropylcellulose) (HPC)
  T/C: 101 % of control
[24]
  T/C: 97 % of control

## CCCCC(=O)NCC(=O)N1CCCC1C(=O)OC(C)(C)C (configuration not stated) (Pentanoyl-Gly-[ξP]-OtBu)
[22]
  T/C: 105 % of control
[23]
  T/C: 101 % of control
[24]
  T/C: 101 % of control

## CS(=O)(=O)O/C=C1\C(=O)OC2CCCCC12 (configuration not stated)
dose: 12.5 mg/kg/injection, schedule: Q01DX009 (ip), vehicle: water
  T/C: 111 % of control
dose: 25.0 mg/kg/injection, schedule: Q01DX009 (ip), vehicle: water
  T/C: 105 % of control
dose: 50.0 mg/kg/injection, schedule: Q01DX009 (ip), vehicle: water
  T/C: 100 % of control
dose: 100.0 mg/kg/injection, schedule: Q01DX009 (ip), vehicle: water
  T/C: 105 % of control
dose: 200.0 mg/kg/injection, schedule: Q01DX009 (ip), vehicle: water
  T/C: 106 % of control

## O=[N+]([O-])c1cccc([I+]c2ccccc2)c1
dose: 50.0 mg/kg/injection, schedule: Q01DX001 (ip), vehicle: saline
  T/C: 91 % of control
[3]
  T/C: 95 % of control
[4]
  T/C: 101 % of control

## CC(C)(Cl)C(N)=O
[3]
  T/C: 101 % of control
[4]
  T/C: 103 % of control
[5]
  T/C: 97 % of control

## Nc1ncc(C(=O)O)c(N)n1
dose: 12.5 mg/kg/injection, schedule: Q01DX001 (ip), vehicle: other
  T/C: 101 % of control
[20]
  T/C: 110 % of control
dose: 12.5 mg/kg/injection, schedule: Q04DX003 (ip), vehicle: saline with Tween-80
  T/C: 101 % of control
dose: 25.0 mg/kg/injection, schedule: Q01DX001 (ip), vehicle: other
  T/C: 97 % of control
[21]
  T/C: 107 % of control
dose: 25.0 mg/kg/injection, schedule: Q04DX003 (ip), vehicle: saline with Tween-80
  T/C: 104 % of control
dose: 50.0 mg/kg/injection, schedule: Q01DX001 (ip), vehicle: other
  T/C: 101 % of control
[10]
  T/C: 102 % of control
[11]
  T/C: 108 % of control
dose: 100.0 mg/kg/injection, schedule: Q01DX001 (ip), vehicle: other
  T/C: 103 % of control

## CCCCN=C(NCCCC)OCCCC
dose: 11.1 mg/kg/injection, schedule: Q01DX Z (ip), vehicle: saline
  T/C: 104 % of control
dose: 16.6 mg/kg/injection, schedule: Q01DX Z (ip), vehicle: saline
  T/C: 100 % of control

## Fc1c(F)c(F)c(Oc2c(F)c(F)c(C(F)(F)F)c(F)c2F)c(F)c1F
[12]
  T/C: 102 % of control
[13]
  T/C: 94 % of control
[14]
  T/C: 98 % of control
[15]
  T/C: 92 % of control
[18]
  T/C: 98 % of control
[19]
  T/C: 92 % of control

## CCc1c(/C=C2/OC(=O)NC2=O)[nH]c(=S)[nH]c1=O
[13]
  T/C: 97 % of control
[15]
  T/C: 96 % of control
[19]
  T/C: 96 % of control
